Measured values from USRE35224E (The Board of Trustees of the Leland Stanford Junior …, priority 1993, dated 1996).
Entries after “also recorded” stand apart in the source; their conditions may differ. Like-named read-outs stand apart in the source and are kept apart here.

Experiments:
natural suppressor cells [1] = assay: Mixed leukocyte reaction (MLR) suppressor assay; format: cell-based, mouse (BALB/c, C57 BL/6)
Method: Responder (BALB/c) and stimulator (C57 BL/6) spleen cells (5×10^5each) were incubated with graded numbers of NS cells in 0.3 ml/well in 96-well flat bottomed microculture plates (Costar, Data Packaging, Cambridge, MA). The culture medium was supplemented with 100 U/ml penicillin, 100 ug/ml of streptomycin (both GIBCO, Grand Island, NY), and 10=pooled human serum (VSP human serum, Biocell Laboratories, Carson CA). Co-cultured cells and stimulator cells were given 3300 rad before incubation. Cultures were maintained at 37° C. in 5% CO2 for 5 or 6 days. Eighteen hr before termination, 1 μCi of ^3 H!-thymidine (specific activity […]) (New England Nuclear, Boston, MA) was added to each culture. Cells were harvested as described above. The data were expressed as the arithmetic mean of triplicate cultures. Suppression was calculated as follows: percent suppression=1-(CPM with co-cultured cells)/(CPM without co-cultured cells)×100. […] To block the effects of agonists, […] cimetidine was used as an H2 antagonist and 10^-6 M mepyramine was used as an H1 antagonist.
CO-cultured and stimulator cells were given 3300 rad in vitro just prior to incubation. […] See, Khan et al., J. Immunol. (1985) 134:4100. […] To determine the role of H1 and H2 receptors in the modification of NS cell function, the incubation with compound 10 was carried out in the presence of either cimetidine (10^-5 M) or mepyramine (10^-6 M) for four hours at 37° C. The cells were then washed extensively and later added to co-cultures with responder and stimulator cells. […] Similar experiments were carried out with each of the indicated agonists (Table 5).

natural suppressor cells [2] = molecular target: T1, natural suppressor cells (Mus musculus, UniProt P97292); assay: Blocking histamine effects in natural suppressor cells (H2 antagonism); format: cell-based, mouse (BALB/c); conditions: for Blockade of histamine mediated accumulation of cAMP: NS cells
T1 construct: cAMP accumulation
Method: This assay was carried out in the same fashion as already described for the derivatives except that ED-90 concentration of the test compound was chosen. Cimetidine was added at the same time in concentrations ranging from 10^-4 to 10^-8 M. Alternatively, 10^-6 M cimetidine was added to 10^-3 -10^-8 M concentration of agonists.

[3] = molecular target: T2, guinea pig myocardial adenylate cyclase (Cavia porcellus, UniProt P47747); assay: Guinea pig myocardial adenylate cyclase assay; format: biochemical; conditions: for Activity on guinea pig myocardium (in words): adenylate cyclase
T2 construct: histamine-stimulated adenylate cyclase with GPP(NH)P
Method: Male, partly albino, guinea pigs (600 g average weight) were killed by a blow to the head. The hearts were excised and immediately immersed in ice cold oxygenated Tyrode's solution. Both ventricles were dissected free and placed in 250 mM sucrose, 5 mM Tris, 1 mM EDTA, pH 7.45. The tissue was minced with a screen, and was then homogenized with 3 consecutive 5 sec bursts of a Polytron (Brinkman Instruments, Inc., Westbury, NY) at a setting of 11. The homogenate was then centrifuged at 1085×g for 20 min. The pellet was resuspended and recentrifuged twice. The final suspension was filtered through four layers of gauze. Adenylate cyclase was assayed by the method of Salomon et al., Anal. Biochem. (1974) 58:541 as modified by Bristow et al., Mol Pharmacol. (1982) 21:671. Enzyme protein (75-250 μg) was added to a reaction mixture that consisted of 0.1 mM Mg ATP, 0.5 mM MgCl2, 10 mM phosphocreatine, 14.5 μg of creatine kinase (1381 U/mg), 100 mM
The final reaction volume before addition of α-^32 P!ATP was 225 μl. Reaction tubes were stored in cryogenic racks (Kryorack, Isolab, Inc. Akron, OH) at 0° C.
The reaction mixture was pre-warmed in a shaking water bath at 30° C. for 5 min after which 25 μl ([…]) of α-^32 P!ATP (250-500 Ci/mM) was added to label the ATP pool. The assay time was 20 min, the time needed for measurable stimulation of adenylate cyclase. The ^32 P reaction was stopped by the addition of 750 μl of 1% sodium dodecysulfate. ^32 P-labelled cyclic AMP was then isolated by the dual Dowex-alumina column method of Salomon et al., supra. α-^32 P!ATP (New England Nuclear Corporation, Boston, MA) that gave reagent blanks of 50 cpm was purified on Dowex columns as described by Salomon et al., supra.

natural suppressor cells [4] = molecular target: T1, natural suppressor cells; assay: Effects of histamine derivatives on cAMP accumulation in natural suppressor (NS) cells; format: cell-based, mouse (BALB/c); conditions: for Relative potency: NS cells, histamine = 1.0; for Activity / potency on NS cells (in words): cAMP accumulation, H2 activity
Description: NS cells were obtained and cultured as follows: four-to six-month old BALB/c mice were anesthetized with pentobarbital and all major lymphoid organs, including all major lymph nodes, the spleen, and the thymus, were irradiated as described by Slavin et al., Science (1976) 193:1252. The skull, lungs, and hind legs were shielded with lead. The mice were given 200 rad per day, 5 times per week, to a total dose of 3400 rad. Irradiation was delivered from a single 250 kV (15A) source (Philips Medical Systems, Inc., Shelton, CT). The mice were killed between 5 and 15 days after completion of the TLI. Spleens were removed aseptically and single cell suspensions were prepared by gently pressing the spleen fragments through a nylon fiber mesh (Tetko, Inc., Elmsford, NY). These spleen cells were fed daily with tissue culture medium containing RPMI 1640, 10% FCS, 2 mM glutamine, 10% CAS and 5×10^-5 M 2-mercaptoethanol and were later cloned by limiting dilutior, The clones were maintained in RPMI 1640 medium with 10% PCS and 10% CAS.
NS cells were centrifuged and resuspended at b 1×10^6 /ml in PBS and incubated at 37° C. for 10 min with 10 mM IBMX at a final concentration at 20 μM. Alternatively the cells were resuspended in 5 mM HEPES and 1 mM MgSO4 and after five minutes were disrupted in a Dounce homogenizer. Broken cells were centrifuged at 20,000 g […] for thirty minutes and supernatant was discarded. The pellet was resuspended in Tris (pH 7.5), 5 mM HEPES and 1 mM MgSO4 and incubated with IBMX.
Cold TCA (100%) was added to a final concentration of 8% and the tubes were stored in ice. Samples were extracted 3 times with 3 volumes of ether. The ether was evaporated at 40° C. in a water bath for approximately 45 min. Acetylation of both experimental samples and cAMP standards were performed by addition of 10 μl of a mixture of triethylamine and acetic anhydride (2:1). […] The radio-immunoassay was performed as reported previously by Khan et al., J. Clin. Invest. (1985) 75:1578.

natural suppressor cells [5] = conditions: literature, Khan et al. 1985; listed as histamine; cited from earlier work
lymphoid cells = assay: Effect of beta adrenergic blockade on cAMP accumulation in lymphoid cells; format: cell-based; conditions: 6×10^-6 M propranolol

T2 sequence (P47747 whole entry): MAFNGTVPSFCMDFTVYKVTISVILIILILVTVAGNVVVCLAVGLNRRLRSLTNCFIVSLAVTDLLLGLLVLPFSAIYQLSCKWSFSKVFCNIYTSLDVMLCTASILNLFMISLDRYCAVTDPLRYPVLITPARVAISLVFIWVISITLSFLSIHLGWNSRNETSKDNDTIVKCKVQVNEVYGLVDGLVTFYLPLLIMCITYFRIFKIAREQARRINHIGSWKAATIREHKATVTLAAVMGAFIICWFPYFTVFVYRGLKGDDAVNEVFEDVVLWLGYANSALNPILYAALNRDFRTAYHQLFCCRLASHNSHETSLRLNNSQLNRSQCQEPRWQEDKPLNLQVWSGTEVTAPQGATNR
T1 sequence (P97292 whole entry): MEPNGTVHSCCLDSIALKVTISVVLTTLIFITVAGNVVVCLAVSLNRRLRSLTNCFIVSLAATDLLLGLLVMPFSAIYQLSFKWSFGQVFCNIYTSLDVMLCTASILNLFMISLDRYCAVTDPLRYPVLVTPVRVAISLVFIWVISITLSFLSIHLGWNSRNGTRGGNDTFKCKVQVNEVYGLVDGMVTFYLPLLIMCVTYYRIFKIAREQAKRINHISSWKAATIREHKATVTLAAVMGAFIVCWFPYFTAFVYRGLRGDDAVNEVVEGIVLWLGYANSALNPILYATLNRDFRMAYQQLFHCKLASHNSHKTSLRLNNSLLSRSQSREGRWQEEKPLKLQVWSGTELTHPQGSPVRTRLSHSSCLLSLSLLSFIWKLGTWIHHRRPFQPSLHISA

| SMILES | H1 activity in MLR (in words) (natural suppressor cells [1]) | Blockade of histamine mediated accumulation of cAMP (natural suppressor cells [2]) | Activity on guinea pig myocardium (in words) [3] | Relative potency (natural suppressor cells [4]) | Activity / potency on NS cells (in words) (natural suppressor cells [4]) | other results |
| --- | --- | --- | --- | --- | --- | --- |
| CN/C(=N/CCSCc1nc[nH]c1C)NC#N [Cimetidine, reference compound] |  |  |  |  |  | Effect of antagonist on derivative-enhanced suppression in MLR (natural suppressor cells [1]; with compound 10, cimetidine 10^-5 M or mepyramine 10^-6 M, four hours at 37° C): did not alter the derivative-enhanced suppression; Effect on basal activity (natural suppressor cells [2]; 10^-6 M cimetidine): did not lower the basal activity; Antagonism by cimetidine (H2 antagonist) of cAMP accumulation (natural suppressor cells [2]; cimetidine 10^-5 M, compounds 6-8 at 10^-4 M, 9 at 10^-7 M): competitively blocked the actions of compounds 6-8 (used at 10^-4 M) and 9 (used at 10^-7 M); Ki (natural suppressor cells [2]; lymphoid cells, read-out: Inhibition constant): 110 to 430 nM |
| CCCCCC(C)NCCc1c[nH]cn1 (stereo not drawn) [Compound 2] | no H1 activity | failed to block histamine mediated accumulation of cAMP | completely inactive | Inactive | impotent as H2 receptor agonists on NS cells | Activity / potency on NS cells (in words) (natural suppressor cells [4]; listed as compound 2): inactive; also recorded: nor did they stimulate intracellular accumulation of cAMP |
| CCCCCC(=O)NCCc1c[nH]cn1 [Compound 3, N-Hexamido-4-2'-aminoethyl!imidazole] | no H1 activity | failed to block histamine mediated accumulation of cAMP | completely inactive | Inactive | impotent as H2 receptor agonists on NS cells | Activity / potency on NS cells (in words) (natural suppressor cells [4]; listed as compound 3): inactive; also recorded: Neither an aliphatic amide derivative of histamine (compound 3) nor the dipeptide conjugate of histamine (compound 12) altered intracellular cAMP; also recorded: nor did they stimulate intracellular accumulation of cAMP |
| CC(CCCC(=O)Nc1ccc(C(F)(F)F)cc1)NCCc1c[nH]cn1 (stereo not drawn) [Compound 10] | only H1 agonistic action |  | no effect on the guinea pig myocardium | Inactive | lost all H2 activity | H1 activity in MLR (in words) (natural suppressor cells [1]; listed as compound 10): appeared to be a specific H1 receptor agonist |
| CC(CCCCC(=O)Nc1ccccc1C(F)(F)F)NCCc1c[nH]cn1 (stereo not drawn) [Compound 11] | nullified both detectable H1 and H2 activity | failed to block histamine mediated accumulation of cAMP |  | Inactive | impotent as H2 receptor agonists on NS cells | Activity / potency on NS cells (in words) (natural suppressor cells [4]; listed as compound 11): nullified both detectable H1 and H2 activity |
| CCCCNC(=O)CCCCC(C)NCCc1c[nH]cn1 (stereo not drawn) [Compound 13] | no H1 activity | failed to block histamine mediated accumulation of cAMP | stimulated guinea pig myocardium | Inactive | impotent as H2 receptor agonists on NS cells | Activity / potency on NS cells (in words) (natural suppressor cells [4]; listed as compound 13): inactive on NS cells; also recorded: nor did they stimulate intracellular accumulation of cAMP |
| NCCc1c[nH]cn1 [Histamine, 2-(4'-imidazolinyl)ethylamino] |  |  |  |  |  | Effect on suppressive ability of NS cells (natural suppressor cells [5]): augmented the suppressive capacity of NS cells via H1 receptors; Stimulation of adenylate cyclase over base levels ([3]; histamine 10^-5 M): threefold stimulation of adenylate cyclase over base levels |
| CC(C)NCC(O)COc1cccc2ccccc12 (stereo not drawn) [Propranolol] |  |  |  |  |  | Effect on histamine-induced intracellular accumulation of cAMP (lymphoid cells): had no effect on histamine-induced intracel accumulation of cAMP; Blockade of the effects of isoproterenol (lymphoid cells; 10^-5 M isoproterenol): completely blocked the effects of 10^-5 M isoproterenol |
